Laboratory results published in patent US20100113337A1, “METHOD FOR REDUCING INCIDENCE OR RATE OF DEVELOPMENT OF SKIN CANCERS AND RELATED CONDITIONS” (Clinuvel Pharmaceuticals Limited, priority 2006, published 2010).

Experiments:
[1] = tested on: Hairless albino Sh:HR-1 mice; experiment: UVB induced skin carcinogenesis in hairless mice (tumour multiplicity); type: in vivo, mouse; settings: one minimal erythemal dose of UVB daily for 10 weeks; tumours counted at weeks 11, 13, 14, 15, 16 and 17; versus control group
Text: Hairless mouse strains such as the HRA-Skh-1 mice are a standard mouse model used to study solar damage to human skin (Canfield et al., 1985—reference 1). Exposure of the hairless mouse to UV light mimics “sunburn” in humans. With continued irradiation treatment, this on-going damage is reflected in progressive thickening of the skin which histologically mimics hyperkeratinization and elastosis associated with photoaging and chronically sun-exposed skin in humans. Pre-malignant tumours begin to appear within several weeks of completion of the ultra violet light regimen. Over an ensuing time period there is a progressive development of pre-malignant and malignant tumours, the histology and behaviour of which closely mimic keratoses and pre-malignant and malignant skin cancers that develop in humans in response to sunlight.
Hairless albino Sh:HR-1 mice are divided into two groups each containing 20 animals. The first group receiving Nle^4-D-Phe^7-alpha-MSH, and the second group being a control group. Both groups receive one minimal erythemal dose of UVB light to stimulate the toxic effect of sunlight on the skin daily for 10 weeks. At weeks 11, 13, 14, 15, 16 and 17 the number of skin tumours on each animal is measured and calculated as tumour multiplicity, i.e. average number of tumours per mouse.

human volunteers = settings: cited from earlier work

[Nle^4,D-Phe^7]-alpha-MSH [Nle^4-D-Phe^7-α-MSH]
protection against UVB induced carcinogenesis (tumour multiplicity, average number of tumours per mouse) [1]: Protection against UVB induced carcinogenesis is observed
induction of melanin synthesis (human volunteers): can induce melanin synthesis
